Consider one compound from US20030013898A1, “Pericyte protective agent” (Toray Industries, Inc., priority 1998, published 2003).

One experiment relates to RAGE mRNA. Briefly: RAGE mRNA in pericytes by quantitative reverse transcription-polymerase chain reaction. It counts as cell-based, bovine. The following applies: 1 μM BPS treatment. The protocol:
Pericytes were isolated from bovine retina and maintained in Dulbecco's modified Eagle medium containing 20% foetal calf serum. Next, the quantity of the AGE receptor RAGE mRNA present in the pericytes was analyzed by means of a quantitative reverse transcription-polymerase chain reaction method, in accordance with the technique described in Biochemical and Biophysical Research Communications, Vol. 213, 682-683, 1995.

Experiment [1] deals with Pericytes isolated from bovine retina. In words: Pericyte protecting action: suppression of pericyte proliferation attributable to AGE. The settings on record: FIG. 1. The format is cell-based. The protocol: Pericytes were isolated from bovine retina and maintained in Dulbecco's modified Eagle medium containing 20% foetal calf serum. The suppression of pericyte proliferation attributable to AGE was measured by adding 0.25 mg of AGE-BSA (prepared in Reference Example 1) to a culture plate into which 3.0×10^4 cells had been plated, then culturing at 37° C. for 5 days and performing measurements using a Packard Cyto Life. Separately, Beraprost sodium (BPS) was added at a final concentration of 0.1-10 μM prior to AGE addition. As controls, measurements were carried out in the same way for the case when treatment was carried out with AGE-BSA only and for the case where no treatment was carried out. For each group, the tests were carried out 10 times respectively.

Each structure is given as a SMILES string.

For `CC#CCC(C)[C@H](O)/C=C/[C@@H]1[C@H]2c3cccc(CCCC(=O)O)c3O[C@H]2C[C@H]1O` (relative stereo) [BPS, (±)-(1R*,2R*,3aS*,8bS*)-2,3,3a,8b-tetrahydro-2-hydroxy-1-[(E)-(3S*)-3-hydroxy-4-methyl-1-octen-6-ynyl]-1H-cyclopenta[b]benzofuran-5-butyric acid], the “expression of RAGE (mRNA)” value in the experiment with RAGE mRNA is on record as “expression of RAGE was suppressed”. Moreover, the “improvement of AGE-induced suppression of pericyte proliferation” value in experiment [1] (BPS 0.1-10 μM added prior to 0.25 mg AGE-BSA, 3.0×10^4 cells, 37° C., 5 days) is on record as “improved in a concentration-dependent manner”. Also, in experiment [1] (BPS added prior to AGE-BSA, 5 days culture), the “concentration at which improvement of suppression of proliferation was significant” value stood at 1 µM.
